The structures appear in SMILES notation.

The results in this text go back to a melting point compilation (Tetko et al.; mined from patent text by program, amines drawn as free bases though some values may be those of a salt).

In turn, `Cc1ccc(-c2nnc(N3CCC(CO)CC3)nc2-c2ccc(C)cc2)cc1` yielded a melting point of 152 to 154 °C.

`C[Si](C)(c1ccc(N(c2ccccc2)c2ccccc2)cc1)c1ccc(N(c2ccccc2)c2ccccc2)cc1` showed a melting point of 170 to 172 °C.

`CC(C)=CC(=O)N[C@H]1CC[C@H](CCN2CCN(c3nccc4c3CCO4)CC2)CC1`: the melting point came to 164 °C.

Regarding `Cc1nc2sccn2c(=O)c1CCN1CCC(n2ccc3ccccc32)CC1`, the melting point is 134 °C.

Compound `CC(C)c1cccc(C(C)C)c1NC(=O)C(N)Cc1ccc(OCc2ccccc2)cc1` (centres undefined) yielded a melting point of 117 to 122 °C.

The compound `Nc1nc(Cl)c2c(n1)OCC2` returned a melting point of 258 to 263 °C.

`CN=C(NS(=O)(=O)c1ccc(Cl)cc1)C1=NN(c2ccc(Cl)cc2Cl)C(c2ccccc2)C1` (centres undefined) showed a melting point of 128 to 130 °C.

The compound `CCCCSc1nc(CCC)n(Cc2ccc(-c3ccccc3S(=O)(=O)NC(=O)NCc3ccccc3)cc2)c1C(=O)C(=O)O` returned a melting point of 192 °C.

As for `COc1ccc(C(=O)c2c(Cl)cc(Cl)cc2Cl)cc1Cc1ccc(=O)n(C)n1`, the melting point was determined as 150 °C.

`COc1ccc(C2(C#Cc3ccnc(N)n3)CCC(=O)CC2)cc1OC1CCCC1` registered a melting point of 68 to 70 °C.

`OC1(c2ccc3c(c2)OCO3)CCC2(CC1)OCCO2` yielded a melting point of 95 to 96 °C.

The compound `Cc1nc2cc(-c3ccc4c(c3)C=C(C(=O)Nc3ccc(CN(C)C5CCOCC5)cc3)CCS4(=O)=O)ccc2o1` yielded a melting point of 236 to 240 °C.

`O=C1CNc2ncc(I)cc2N1Cc1ccc(C(F)(F)F)o1` displayed a melting point of 189 to 191 °C.

With `COc1ccc(C(C#Cc2ccccc2)Cc2noc(C)n2)cc1OC1CCCC1` (racemic), the melting point fell in the range of 86 to 90 °C.

The compound `CC(=O)NCCn1ccc2c1-c1cccc(Cl)c1CC2` displayed a melting point of 124 to 126 °C.

In turn, `CCN(CC)c1ccc(N(CC)CC)c(N2CCNCC2)n1` came in with a melting point of 120 °C.

The compound `CCNC(=O)c1sc(N2CCN(Cc3ccc(OC(F)(F)F)cc3)C2=O)nc1C` gave a melting point of 139 to 140 °C.

On to `CO[C@@H](Cc1ccc(OCCc2nc(-c3cc(C)cc(C)c3)oc2C)c2ccsc12)C(=O)O`, for which the melting point lay in the range of 184 to 185 °C.

As to `COc1ccc(N2CCN(c3c(C)c(C)c4c(c3C)C(c3ccc(C)cn3)C(C)(C)O4)CC2)cc1` (centres undefined), the melting point is 186 to 187 °C.

`O=C1[C@@H](O)CCN1CC#CCn1ccnc1`: the melting point is 127 to 128 °C.

`COc1ccc(Cl)c(Oc2c(Cl)nc(C)nc2NS(=O)(=O)c2ccc(C(C)(C)C)cc2)c1` registered a melting point of 182 °C.

Consider `Cn1nc(-c2ccc(N)c([N+](=O)[O-])c2)c2ccccc21`, for which the melting point was 231 °C.

With `CCCC(C)n1c(=O)nc(-n2cccn2)[nH]c1=O` (centres undefined), the melting point lay within 99 to 100 °C.

Regarding `COc1ccc(CN2C(=O)C(CO)(c3ccccc3Cl)c3cc(Cl)ccc32)c(OC)c1` (centres undefined), the melting point worked out at 165 °C.

In turn, `Cc1ccc(-c2ccc3c(c2)C=C(C(=O)Nc2ccc(C(O)c4ccccn4)cc2)C(C)O3)cc1` (centres undefined) yielded a melting point of 202 to 205 °C.

For the compound `Cc1c(Cc2cccc(C(F)(F)F)c2)oc2c(-c3cccc(C(=O)NCCC#N)c3)cccc12`, the melting point is 158 to 159 °C.

Compound `CC(C)(N)CCn1c(=O)oc2ccccc21` yielded a melting point of 145 to 147 °C.

Compound `OCc1cnc2n1-c1ccc(Cl)cc1C(c1ccccc1)=NC2` registered a melting point of 210 to 213 °C.

In turn, `NC(=O)c1cc(-n2cnn(Cc3ccc(F)cc3)c2=O)n[nH]1` registered a melting point of more than 270 °C.

In the case of `CCCC(O)(CCC)c1ccc(Cl)c2nc3n(c12)CCCN3c1c(C)cc(Cl)cc1Cl`, the melting point lay in the range of 176 to 178 °C.

Consider `O=c1c2ccc(Cl)cc2[nH]c2c(O)nn(C3CCOc4ccccc43)c(=O)c12` (racemic), for which the melting point is more than 300 °C.

Compound `COC(=O)c1c(O)ccc(CNC(=O)CCCCCNC(=O)OC(C)(C)C)c1O` gave a melting point of 73 to 76 °C.

On to `O=C(Nc1n[nH]c2cc(Cl)ccc12)c1cccs1`, for which the melting point is 215 °C.

As to `C=C(Cn1ccnc1)c1cc(F)ccc1OCc1ccc(Cl)cc1Cl`, the melting point lay in the range of 79 to 82 °C.

On to `CC(C)C(=O)c1cn(C)cc(-c2cccc(C(F)(F)F)c2)c1=O`, for which the melting point was 104 to 105 °C.

`CCCNC(=O)[C@H](C)C[C@H](O)[C@H](CC1CCCCC1)NC(=O)[C@H](Cc1cscn1)NC(=O)OC(C)(C)C` returned a melting point of 182 to 184 °C.

Turning to `O=S(=O)(NCC1CCN(C[C@H]2COc3ccc(Cl)cc3O2)CC1)c1ccc(F)cc1`, the melting point fell in the range of 127 to 129 °C.

`OC(Cn1cncn1)(c1ccc(F)cc1F)C1(SC(F)(F)F)CC1` (centres undefined) came in with a melting point of 103 °C.

The compound `COc1ccn2cc(-c3ccc(C)c(C)c3)nc2c1` gave a melting point of 175 °C.

As to `NCC1Cc2cccc(-c3cccc4ccccc34)c2O1` (centres undefined), the melting point was 120 to 124 °C.

Compound `COc1cc(C)cc(NC(=O)c2nnnn2Cc2ccccc2)c1OCc1ccccc1` registered a melting point of 181 to 183 °C.

Consider `COc1ccc2ccc(NC(=O)c3cccc(OC(C)=O)c3)nc2n1`, for which the melting point came to 172 °C.

With `CCCCCCCCCCCCC1CC(=C(C#N)C#N)CCC1=C(C#N)C#N` (centres undefined), the melting point is 97 °C.

For `CCCc1cc(=O)oc2c(C(=O)CC)c(O)c3c(c12)OC(C)(C)C=C3`, the melting point was in the range of 96 to 98 °C.

`O=[N+]([O-])c1cccnc1Nc1ccccc1` had a melting point of 66 to 68 °C.

Compound `COc1ccc(C(=O)c2ccc(Oc3ccc(Cl)cc3)cn2)cc1OC` yielded a melting point of 145 to 147 °C.

In turn, `CCOC(=O)c1cc2cc([Si](C)(C)C)ccc2[nH]1` returned a melting point of 114 to 115 °C.

For the compound `CC(C)c1nc(-c2ccc(F)cc2)c(-c2ccc(F)cc2)n1/C=C/[C@@H](O)C[C@@H](O)CC(=O)O`, the melting point lay in the range of 172 to 173 °C.

On to `CCc1c(Cl)cc(C(C)(C)C)c(O)c1-c1nc2ccc(S(=O)(=O)C(F)(F)F)cc2c(=O)[nH]1`, for which the melting point is 285 to 286 °C.

In turn, `CNC(=O)n1nc(Oc2ccc([N+](=O)[O-])c(C(F)(F)F)c2)cc1C` yielded a melting point of 139 to 141 °C.

`CN(C)c1ccc(NC(=O)N(C[C@H]2CCC[C@H](CN(C(=O)Nc3ccc(N(C)C)cc3)C3CCCC3)C2)C2CCCC2)cc1` (relative stereo) showed a melting point of 142 to 147 °C.

In the case of `N#Cc1cccc(NC(=O)C(=O)N2CCC(Cc3ccc(F)cc3)CC2)c1`, the melting point is 135 to 138 °C.

`Clc1ccccc1-c1nc(-c2ccccn2)no1` registered a melting point of 93 to 94 °C.

Compound `CCOC(=O)C1CC(=C2CCN(c3ccccc3)C2=O)c2ccc(Cl)cc2N1` (centres undefined) returned a melting point of 160 to 162 °C.

`Cn1cc(C(=O)NS(=O)(=O)c2cccs2)cn1` came in with a melting point of 174 to 180 °C.

In turn, `NS(=O)(=O)c1ccc(-c2nc(C(F)(F)F)oc2-c2ccc(Cl)cc2)cc1` had a melting point of 167 to 168 °C.

`COC(=O)c1ccc(C#Cc2cncc(C3CCCN3C)c2)cc1` (centres undefined): the melting point was in the range of 97 to 98 °C.

Take `CC#CCCn1ncc2c(OCC)c(C(=O)OCC)cnc21`: the melting point lay in the range of 93 to 95 °C.

In turn, `NNC(=O)C(=O)N(N)C(=O)c1ccccc1` had a melting point of 226 °C.

In turn, `CN1CCc2cc(O)c(O)c(Sc3ccsc3)c2CC1` had a melting point of 189 to 191 °C.

Consider `CC(=O)Nc1ccc(C(=O)c2cc(-c3ccc(S(C)(=O)=O)cc3)c(N3CCOCC3)s2)cc1`, for which the melting point came out at 129 °C.

In turn, `CCN(C(=O)c1ccccc1C(=O)c1ccccc1)C(C)(C)CNS(=O)(=O)c1ccc(C)cc1` showed a melting point of 157 to 160 °C.

As for `O=c1c2c(Cl)cc(Cl)cc2n(Cc2ccccc2)c(=O)n1CCc1ccccc1`, the melting point was 169 to 171 °C.

Compound `Oc1cccc(C=C2c3ccccc3Cc3ccccc32)c1` showed a melting point of 196 °C.

The compound `CN1C[C@H](CN2CCN(C(c3ccccc3)c3ccccc3)CC2)C=C2c3cccc4[nH]cc(c34)C[C@H]21` came in with a melting point of more than 200 °C.

In the case of `C=Cc1cc(NC(=O)N2CCN(c3cc(C)cc(C)c3)CC2)c(OC)nc1C`, the melting point lay within 131 to 132 °C.

`Clc1ccc(-c2cc3ncnc(Nc4ccc5[nH]ccc5c4)c3s2)cc1` registered a melting point of 190 to 210 °C.

Turning to `O=C(O)C(=C1SCCCS1)c1cccc(C(F)(F)F)c1`, the melting point was in the range of 165 to 166 °C.

Consider `O[C@@H]1[C@H](O)[C@H](O)CO[C@H]1n1c(Br)nc2cc(Cl)c(Cl)cc21`, for which the melting point lay in the range of 164 to 165 °C.

`CCCCCCCCCCCCn1c2cc(Cl)ccc2c2ccc(Cl)cc21` returned a melting point of 70 to 71 °C.

Take `Cc1ccc(C(=O)O)cc1Nc1nccc(-c2cccnc2)n1`: the melting point lay within 277 to 278 °C.

The compound `N#Cc1c[nH]c2cc(F)c(OCc3ccccc3)cc2c1=O` showed a melting point of more than 250 °C.

Compound `CC(C)(C)CC(=O)c1c(CC(C)(C)C(=O)O)n(Cc2ccc(Cl)cc2)c2ccc(OCc3ccc4ccccc4n3)cc12` yielded a melting point of 183 to 184 °C.

Take `COc1nc(Nc2cc(C)ccc2N)nc(OC)n1`: the melting point fell in the range of 180 to 183 °C.

The compound `Cn1c(CC(C)(C)C(=O)O)c(C(=O)c2ccc(Cl)cc2)c2ccc(OCc3ccc4ccccc4n3)cc21` yielded a melting point of 203 to 205 °C.

In turn, `O=C1CCC(CCO)(c2ccc(F)c(F)c2)CN1Cc1cc(C(F)(F)F)cc(C(F)(F)F)c1` (centres undefined) returned a melting point of 120 °C.

With `COC(=O)Oc1ccc(OC)c(C=O)c1`, the melting point was in the range of 88 to 89 °C.

`O=C(O)[C@H]1C[C@H](NC(=S)Nc2ccccc2)c2c(Cl)cc(Cl)cc2N1` (relative stereo) yielded a melting point of 186 to 187 °C.

With `COc1cc(NS(=O)(=O)CC(=O)c2ccccc2)c2c(c1)OC(C)C2` (centres undefined), the melting point lay in the range of 143 to 145 °C.

`COc1ccc(Cl)cc1C(CC(=O)O)c1ccccc1` (centres undefined) yielded a melting point of 144 °C.

Regarding `CSc1cnc(NC(=O)c2ccc(OC(C)=O)cc2)s1`, the melting point fell in the range of 193 to 196 °C.

In turn, `c1ccc(OC(Oc2cccc3ccccc23)Oc2cccc3ccccc23)cc1` yielded a melting point of 88.5 to 90 °C.

On to `C#CCOc1ncc(Cl)cc1OC`, for which the melting point is 62 to 64 °C.

As to `CNC(=S)N(CCN1CCC(Nc2nc3ccccc3n2Cc2ccc(F)cc2)CC1)c1nccs1`, the melting point was found to be 188 °C.

One may read the melting point as the temperature of the solid-liquid transition.
